Patent publication US7655669B2, “Pyrimidineamide derivatives and the use thereof” (Novartis AG, priority 2002, dated 2010)

Assays:
[1] = target: T1, c-Abl protein tyrosine kinase (Homo sapiens, UniProt P00519); assay: Test for activity against c-Abl protein tyrosine kinase (filter binding assay); type: biochemical; details: expressed as a range within which individual IC50 measurements fall
T1 construct: The His-tagged kinase domain of c-Abl is cloned and expressed in the baculovirus/Sf9 system; His; made in house; host or cells: baculovirus/Sf9
T1 sequence (P00519 242-493 limits assumed): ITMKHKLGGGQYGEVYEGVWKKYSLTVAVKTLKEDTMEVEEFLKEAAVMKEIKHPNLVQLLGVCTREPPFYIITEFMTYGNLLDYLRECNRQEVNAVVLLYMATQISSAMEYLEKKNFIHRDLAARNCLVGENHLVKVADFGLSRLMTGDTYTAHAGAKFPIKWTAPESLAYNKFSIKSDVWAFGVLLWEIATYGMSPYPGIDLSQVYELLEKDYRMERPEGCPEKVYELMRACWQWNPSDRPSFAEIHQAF
Description: Test for activity against c-Abl protein tyrosine kinase. […] The assay contains: c-Abl kinase (50 ng), 20 mM Tris-HCl, pH 7.5, 10 mM MgCl2, 10 μM Na3VO4, 1 mM DTT and 0.06 μCi/assay [γ^33P]-ATP (5 μM ATP) using 30 μg/mL poly-Ala,Glu,Lys,Tyr-6:2:5:1 (Poly-AEKY, Sigma P1152) in the presence of 1% DMSO, total volume of 30 μL. Reactions are terminated by adding 10 μL of 250 mM EDTA, and 30 μL of the reaction mixture is transferred onto Immobilon-PVDF membrane (Millipore, Bedford, Mass., USA) previously soaked for 5 min with methanol, rinsed with water, then soaked for 5 min with 0.5% H3PO4 and mounted on vacuum manifold with disconnected vacuum source. After spotting all samples, vacuum is connected and each well rinsed with 200 μL 0.5% H3PO4. Membranes are removed and washed on a shaker with 0.5% H3PO4 (4 times) and once with ethanol. Membranes are counted after drying at ambient temperature, mounting in Packard TopCount 96-well frame, and addition of 10 μL/well of Microscint™ (Packard).

[2] = target: T2, p210 Bcr-Abl (Homo sapiens, UniProt P00519); assay: Test for activity against Bcr-Abl (Bcr-Abl phosphorylation ELISA in 32D-bcr/abl cells); type: cell-based; details: expressed as a range within which individual IC50 measurements fall
T2 construct: expressed in transfected cells; host or cells: murine myeloid progenitor cell line 32Dcl3 (32D-bcr/abl), from J. Griffin; the other entry of the earlier key: BCR (P11274, Breakpoint cluster region protein)
Excerpt: Test for activity against Bcr-Abl. The murine myeloid progenitor cell line 32Dcl3 transfected with the p210 Bcr-Abl expression vector pGDp210Bcr/Abl (32D-bcr/abl) was obtained from J. Griffin (Dana Faber Cancer Institute, Boston, Mass., USA). The cells express the fusion Bcr-Abl protein with a constitutively active Abl kinase and proliferate growth factor independent. […] After thawing, the cells are used during maximally 10-12 passages for the experiments.
For cellular assays, compounds are dissolved in DMSO and diluted with complete medium to yield a starting concentration of 10 μM followed by preparation of serial 3-fold dilutions in complete medium. 200,000 32D-Bcr/Abl cells in 50 μL complete medium are seeded per well in 96 well round bottom tissue culture plates. 50 μL per well of serial 3-fold dilutions of the test compound are added to the cells in triplicates. Untreated cells are used as control. The compound is incubated together with the cells for 90 min at 37° C., 5% CO2, followed by centrifugation of the tissue culture plates at 1300 rpm (Beckman GPR centrifuge) and removal of the supernatants by careful aspiration taking care not to remove any of the pelleted cells. The cell pellets are lysed by addition of 150 μL lysis buffer (50 mM Tris/HCl, pH 7.4, 150 mM sodium chloride, 5 mM EDTA, 1 mM EGTA, 1% NP-40, 2 mM sodium ortho-vanadate, 1 mM PMSF, 50 μg/mL aprotinin and 80 μg/mL leupeptin) and either used immediately for the ELISA or stored frozen in the plates at −20° C. until usage.
After washing 3 times with 200 μL/well PBS containing 0.05% Tween20 (PBST) and 0.5% TopBlock (Juro), residual protein binding sites are blocked with 200 μL/well PBST, 3% TopBlock for 4 h at room temperature followed by incubation with 50 μL lysates of untreated or compound-treated cells (20 μg total protein per well) for 3-4 h at 4° C. After 3 washings, 50 μL/well anti-phosphotyrosine Ab PY20(AP) labeled with alkaline phosphatase (Zymed) diluted to 0.2 μg/mL in blocking buffer is added and incubated over night (4° C.). For all incubation steps the plates are covered with plate sealers (Costar). Finally, the plates are washed another three times with washing buffer and once with deionized water before addition of 90 μL/well of the AP-substrate CDPStar RTU with Emerald II. The plates, now sealed with Packard TopSeal™-A plate sealers, are incubated for 45 min at room temperature in the dark and luminescence is quantified by measuring counts per second (CPS) with a Packard Top Count Microplate Scintillation Counter (Top Count).
The difference between the ELISA-readout (CPS) obtained for with the lysates of the untreated 32D-Bcr/Abl cells and the readout for the assay-background (all components, but without cell lysate) is calculated and taken as 100% reflecting the constitutively phosphorylated Bcr-Abl protein present in these cells. The activity of the compound on the Bcr-Abl kinase activity is expressed as percent reduction of the Bcr-Abl phosphorylation. The values for the IC50 and IC90 are determined from the dose response curves by graphical extrapolation.

T2 sequence (P00519 28-1130 limits assumed): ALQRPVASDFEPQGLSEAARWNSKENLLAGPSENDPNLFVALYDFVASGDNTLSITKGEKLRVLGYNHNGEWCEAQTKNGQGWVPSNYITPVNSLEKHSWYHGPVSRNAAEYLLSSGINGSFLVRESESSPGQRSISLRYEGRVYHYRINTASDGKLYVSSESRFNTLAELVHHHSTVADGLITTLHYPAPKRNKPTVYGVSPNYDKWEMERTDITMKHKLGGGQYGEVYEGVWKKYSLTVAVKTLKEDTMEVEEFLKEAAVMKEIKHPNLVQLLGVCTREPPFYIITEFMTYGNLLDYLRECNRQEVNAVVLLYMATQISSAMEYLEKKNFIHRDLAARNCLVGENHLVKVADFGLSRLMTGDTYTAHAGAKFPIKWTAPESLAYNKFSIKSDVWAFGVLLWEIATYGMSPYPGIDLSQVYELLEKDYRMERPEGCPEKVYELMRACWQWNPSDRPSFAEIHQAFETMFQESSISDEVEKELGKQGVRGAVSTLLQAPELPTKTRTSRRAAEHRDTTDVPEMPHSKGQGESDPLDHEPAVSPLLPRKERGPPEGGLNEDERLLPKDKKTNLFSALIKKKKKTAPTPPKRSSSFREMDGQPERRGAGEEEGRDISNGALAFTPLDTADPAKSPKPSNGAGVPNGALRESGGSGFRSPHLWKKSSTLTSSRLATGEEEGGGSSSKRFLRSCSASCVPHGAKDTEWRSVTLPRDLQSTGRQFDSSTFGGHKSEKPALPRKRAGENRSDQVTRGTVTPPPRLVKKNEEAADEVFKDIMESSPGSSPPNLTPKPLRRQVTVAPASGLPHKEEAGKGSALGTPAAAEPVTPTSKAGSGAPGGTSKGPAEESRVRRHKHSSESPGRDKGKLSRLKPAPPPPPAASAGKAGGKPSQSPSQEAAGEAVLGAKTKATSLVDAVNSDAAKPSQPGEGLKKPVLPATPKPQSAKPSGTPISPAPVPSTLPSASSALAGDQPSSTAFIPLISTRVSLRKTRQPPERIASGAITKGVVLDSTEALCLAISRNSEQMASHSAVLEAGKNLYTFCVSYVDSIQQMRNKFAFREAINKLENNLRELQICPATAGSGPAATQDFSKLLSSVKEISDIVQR

Row | Structure (SMILES) | IC50 [1] [nM] | IC50 [2] [nM]
1 | CCN(CC)c1ccc(C(=O)Nc2ccc(C)c(Nc3nccc(-c4cccnc4)n3)c2)cc1C(F)(F)F [Example 1, 4-Diethylamino-N-[4-methyl-3-[[4-(3-pyridinyl)-2-pyrimidinyl]amino]phenyl]-3-(trifluoromethyl)-benzamide] | 50 to 100 | 200 to 500
2 | Cc1ccc(NC(=O)c2ccc(N3CCCC3)c(C(F)(F)F)c2)cc1Nc1nccc(-c2cccnc2)n1 [Example 2, N-[4-Methyl-3-[[4-(3-pyridinyl)-2-pyrimidinyl]amino]phenyl]-4-(1-pyrrolidinyl)-3-(trifluoromethyl)-benzamide] | 10 to 60 | 100 to 300
3 | Cc1ccc(NC(=O)c2ccc(N3CCOCC3)c(C(F)(F)F)c2)cc1Nc1nccc(-c2cccnc2)n1 [Example 3, N-[4-Methyl-3-[[4-(3-pyridinyl)-2-pyrimidinyl]amino]phenyl]-4-(4-morpholinyl)-3 (trifluoromethyl)-benzamide] | 40 to 100 | 20 to 100
4 | Cc1ccc(NC(=O)c2ccc(N3CCCCC3)c(C(F)(F)F)c2)cc1Nc1nccc(-c2cccnc2)n1 [Example 4, N-[4-Methyl-3-[[4-(3-pyridinyl)-2-pyrimidinyl]amino]phenyl]-4-(1-piperidinyl)-3-(trifluoromethyl)-benzamide] | 60 to 110 | 80 to 200
5 | Cc1ccc(NC(=O)c2ccc(N3CCN(C)CC3)c(C(F)(F)F)c2)cc1Nc1nccc(-c2cccnc2)n1 [Example 5, 4-(4-Methyl-1-piperazinyl)-N-[4-methyl-3-[[4-(3-pyridinyl)-2-pyrimidinyl]amino]phenyl]-3-(trifluoromethyl)-benzamide] | 5 to 50 | 30 to 100
6 | Cc1ccc(NC(=O)c2ccc(-n3ccnc3)c(C(F)(F)F)c2)cc1Nc1nccc(-c2cccnc2)n1 [Example 6, 4-(1H-Imidazol-1-yl)-N-[4-methyl-3-[[4-(3-pyridinyl)-2-pyrimidinyl]amino]phenyl]-3-(trifluoromethyl)-benzamide] | 5 to 20 | 10 to 50
7 | Cc1ccc(NC(=O)c2ccc(-n3ccnc3C)c(C(F)(F)F)c2)cc1Nc1nccc(-c2cccnc2)n1 [Example 7, 4-(2-Methyl-1H-imidazol-1-yl)-N-[4-methyl-3-[[4-(3-pyridinyl)-2-pyrimidinyl]amino]phenyl]-3-(trifluoromethyl)-benzamide] | 5 to 20 | 10 to 50
8 | Cc1cn(-c2ccc(C(=O)Nc3ccc(C)c(Nc4nccc(-c5cccnc5)n4)c3)cc2C(F)(F)F)cn1 [Example 8, 4-(4-Methyl-1H-imidazol-1-yl)-N-[4-methyl-3-[[4-(3-pyridinyl)-2-pyrimidinyl]amino]phenyl]-3-(trifluoromethyl)-benzamide] | 5 to 20 | 10 to 50
9 | Cc1cn(-c2ccc(C(=O)Nc3ccc(C)c(Nc4nccc(-c5cccnc5)n4)c3)cc2C(F)(F)F)c(C)n1 [Example 9, 4-(2,4-Dimethyl-1H-imidazol-1-yl)-N-[4-methyl-3-[[4-(3-pyridinyl)-2-pyrimidinyl]amino]phenyl]-3-(trifluoromethyl)-benzamide] | 5 to 20 | 20 to 80
10 | Cc1ccc(NC(=O)c2cc(-n3ccnc3)cc(C(F)(F)F)c2)cc1Nc1nccc(-c2cccnc2)n1 [Example 10, 3-(1H-Imidazol-1-yl)-N-[4-methyl-3-[[4-(3-pyridinyl)-2-pyrimidinyl]amino]phenyl]-5-(trifluoromethyl)-benzamide] | 5 to 20 | 10 to 50
11 | Cc1ccc(NC(=O)c2cc(-n3ccnc3C)cc(C(F)(F)F)c2)cc1Nc1nccc(-c2cccnc2)n1 [Example 11, 3-(2-Methyl-1H-imidazol-1-yl)-N-[4-methyl-3-[[4-(3-pyridinyl)-2-pyrimidinyl]amino]phenyl]-5-(trifluoromethyl)-benzamide] | 5 to 20 | 10 to 50
12 | Cc1cn(-c2cc(C(=O)Nc3ccc(C)c(Nc4nccc(-c5cccnc5)n4)c3)cc(C(F)(F)F)c2)cn1 [Example 12, 3-(4-Methyl-1H-imidazol-1-yl)-N-[4-methyl-3-[4-(3-pyridinyl)-2-pyrimidinyl]amino]phenyl-5-(trifluoromethyl)-benzamide] | 5 to 20 | 10 to 50
13 | Cc1ccc(NC(=O)c2cc(N3CCOCC3)cc(C(F)(F)F)c2)cc1Nc1nccc(-c2cccnc2)n1 [Example 13, N-[4-Methyl-3-[[4-(3-pyridinyl)-2-pyrimidinyl]amino]phenyl]-3-(4-morpholinyl)-5-(trifluoromethyl)-benzamide] | 5 to 20 | 20 to 80
14 | Cc1ccc(NC(=O)c2cc(N3CCN(C)CC3)cc(C(F)(F)F)c2)cc1Nc1nccc(-c2cccnc2)n1 [Example 14, 3-(4-Methyl-1-piperazinyl)-N-[4-methyl-3-[[4-(3-pyridinyl)-2-pyrimidinyl]amino]phenyl]-5-(trifluoromethyl)-benzamide] | 5 to 20 | 30 to 180
15 | Cc1ccc(NC(=O)c2ccc(N(C)CCN(C)C)c(C(F)(F)F)c2)cc1Nc1nccc(-c2cccnc2)n1 [Example 15, 4-[[2-(Dimethylamino)ethyl]methylamino]-N-[4-methyl-3-[[4-(3-pyridinyl)-2-Pyrimidinyl]amino]phenyl]-3-(trifluoromethyl)-benzamide] | 5 to 20 | 50 to 200
16 | Cc1ccc(NC(=O)c2ccc(N(C)C3CCN(C)CC3)c(C(F)(F)F)c2)cc1Nc1nccc(-c2cccnc2)n1 [Example 16, 4-[Methyl-(1-methyl-4-piperidinyl)amino]-N-[4-methyl-3-[[4-(3-Pyridinyl)-2-pyrimidinyl]amino]phenyl]-3-(trifluoromethyl)-benzamide] | 5 to 20 | 50 to 200
17 | CCNc1cc(C(=O)Nc2ccc(C)c(Nc3nccc(-c4cccnc4)n3)c2)cc(C(F)(F)F)c1 [Example 17] | 10 to 70 | 20 to 60
18 | CC(=O)Nc1cc(C(=O)Nc2ccc(C)c(Nc3nccc(-c4cccnc4)n3)c2)cc(C(F)(F)F)c1 [Example 18, 3-Acetylamino-N-[4-methyl-3-[[4-(3-pyridinyl)-2-pyrimidinyl]amino]phenyl]-5-(trifluoromethyl)-benzamide] |  | 13
